Reference: patent US4124723A, “Method for suppressing histamine release” (Carter-Wallace, Inc., priority 1977, dated 1978)

Assays:
[1] = test system: sensitized rabbit leukocytes; assay: Inhibition of histamine release from sensitized rabbit leukocytes (in vitro); assay type: cell-based; conditions: for IC50: Oryctolagus cuniculus, Leukocyte, ragweed-sensitized rabbit leukocytes, ragweed antigen, with S.E.M., read-out: ED50 + S.E.M. (molar concentration required to give 50% inhibition of histamine release); for Relative in vitro Inhibition of Histamine Release: relative to chlorphenesin = 1
Protocol: The procedure published by L. M. Lichtenstein and A. G. Osler, J. EXPTL. MEDICINE, 120:507-530, 1964, for the determination of histamine from human leukocytes, was used to measure histamine release from sensitized rabbit leukocytes. Forty-five ml of blood, drawn by cardiac puncture from ragweed-sensitized rabbits with a plastic syringe containing 250 units of heparin in 5 ml of physiological saline solution, was used. Measurements were made of the total amount of histamine in the leukocytes, the amount of histamine released with the specific antigen (ragweed), the amount of histamine released spontaneously (cell blanks), and the amount of histamine released in the presence of various concratrations of drugs under test.
Appropriate controls for buffer antigen and drugs were included and an internal histamine standard curve was established with each experiment. Inhibition of histamine release was computed from the amount of histamine released by the ragweed antigen in the presence and absence of the drug, i.e., the difference between the quantity of histamine released spontaneously and the amount released by antigen.

[2] = test system: ragweed-sensitized rabbits; assay: Inhibition of histamine release after oral administration to ragweed-sensitized rabbits (in vivo); conditions: 100 mg/kg oral, rabbit, 50 μg antigen N per ml
Protocol: Five ml of blood was drawn by cardiac puncture from a ragweed-sensitized rabbit to ascertain the basic histamine content of the blood. The amount of histamine released by the addition of 50 μg of antigen N per ml of the assay system was determined. The rabbit was then treated orally with 100 mg/kg of drug using a catheter. One and 5 hr following administration of drug, 5 ml of blood was withdrawn and assayed for histamine by the spectrofluorometric method described by P. A. Shore, A. Burkhalter and V. H. Cohn, Jr., J. PHARMACOL. and EXPTL. THERAP., 127:182, 1959. The percentage inhibition of histamine release was computed from the amount of histamine released before and at 1 and 5 hr following administration of drug.

[3] = test system: human leukocytes; conditions: reported by Lichtenstein and Adkinson, J. Immunology 103:866, 1969; cited from earlier work

Row | Compound | IC50 [1] | Relative in vitro Inhibition of Histamine Release [1] | percentage inhibition of histamine release ([2]; 5 hrs after drug) | percentage inhibition of histamine release ([2]; one hour after drug) | inhibition of histamine release from human leukocytes [3]
1 | O=C(O)CSc1ccc(Cl)cc1 [Compound 2, 2-(p-Chlorophenylthio)acetic acid] | 44 µM | 8 | – | – | –
2 | COCCCCSc1ccc(Cl)cc1 [Compound 4, 4-(p-Chlorophenylthio)butyl methyl ether] | 28 µM | 12 | – | – | –
3 | O=C(O)CCCSc1ccc(Cl)cc1 [Compound 1, Sodium 4-(p-Chlorophenylthio)butyrate] | 6 µM | 55 | 10-15% | 30-40% | –
4 | CC(=O)OCCCCSc1ccc(Cl)cc1 [Compound 3, 4-(p-Chlorophenylthio)butyl acetate] | 6.3 µM | 52 | – | – | –
5 | OCC(O)COc1ccc(Cl)cc1 (stereo not shown) [chlorphenesin, 3-p-chlorophenoxy-1,2-propanediol, reference compound] | 330 µM | 1 | – | – | inhibit histamine release from human leukocytes
